Reference: patent publication US12215162B2, “BAFF-R targeted chimeric antigen receptor-modified T-cells and uses thereof” (CITY OF HOPE, priority 2016, dated 2025)

How the values were obtained:
SP49 = details: 100 nM ibrutinib; cited from earlier work
SP49-IR = details: 100 nM ibrutinib; cited from earlier work
[1] = tested on: RS4; 11 (acute lymphoblastic leukemia, ALL); test: In vivo RS4;11 ALL tumor model, antibody treatment; parameters: species or system NSG mice; details: 200 μg antibody + NK-92-176V cells + IL-2 IV
Description: FIG. 4A is a schematic showing treatment schedule following Day 0 tumor challenge with minimum lethal dose of tumors. Treatments were given by IV tail vein injections. FIGS. 4B and 4C are images showing chimeric antibodies targeting human BAFF-R elicited in vivo therapeutic effects against B-cell tumors. Bioluminescence images of mice challenged with luciferase-expressing tumors: JeKo-1 (MCL) (FIG. 4B) or RS4; 11 (ALL) (FIG. 4C). Experimental groups received treatment of chimeric BAFF-R mAbs (C55 or C90, as indicated). Control group mice received PBS, NK cells alone, or rituximab on the same schedule. Data are representative of three independent experiments.
(§1) In vivo studies. For tumor models, stable, luciferase-expressing tumors lines were established for bioluminescent imaging in mouse models. Briefly, a luciferase gene was introduced into tumor lines by a lentivirus gene delivery system (pLenti7.3/V5-DEST Gateway Vector Kit, Life Technologies, Carlsbad, CA). The minimum lethal dose per mouse was determined for each tumor cell line by dose titration. Tumor cells were injected intravenously (IV) and mice were monitored by in vivo bioluminescence imaging for minimum tumor dose to ensure engraftment. Minimum lethal tumor doses were 1×10^6 JeKo-1, 5×10^5 RS4; 11, 5×10^5 JeKo-1-CD20-KO, or 2.5×10^4 Z-138 cells. […]

JeKo-1-CD20-KO clone 25 = test: ADCC against rituximab-resistant JeKo-1-CD20-KO; type: cell-based, human; details: NK cells E:T 20:1
Experimental: FIGS. 5A, 5B and 5C are images or graphs showing chimeric BAFF-R antibodies induce ADCC on drug resistant lymphoma models in vitro. FIG. 5A is a scatterplot of FACS analysis showing CD20 binding on JeKo-1 cells following CRISPR/HDR knock-out of CD20 gene. CD20 expression on selected CD20−/−clone #25 compared to WT JeKo-1. ADCC effects measured by chromium-51 release after incubation with C55, C90, or rituximab and effectors NK cells (E:T=20:1). Percentage of cell specific lysis of target cells: rituximab-resistant JeKo-1-CD20-KO (FIG. 5B) and ibrutinib-resistant Z-138 and SP49-IR (FIG. 5C). All data are representative of two or more identical experiments. Data are shown as the mean±s.d. of triplicate samples. *P<0.05 compared with NK cells by two-tailed Student's t-test.
Cytotoxicity assays. Target cells (L cells, human tumor lines, primary patient samples) were labeled with chromium-51 (51Cr, Perkin Elmer, Waltham, MA) for a 51Cr release assay. Briefly, antibodies and effectors (NK cells or complement serum standard [Sigma Aldrich, St. Louis, MO]), were added to labeled target cells and incubated up to 18 hours. NK cells were enriched from PBMC (NK cell enrichment kit, Stemcell Technologies, Vancouver, Canada). 51Cr released into supernatant was detected with a Wizard Automatic Gamma Counter (Perkin Elmer).
Generation of JeKo-1-CD20-KO. […]

JeKo-1-CD20-KO = test: In vivo JeKo-1-CD20-KO tumor model, antibody treatment; parameters: species or system NSG mice; details: Day 20
Description: FIGS. 6A and 6B are images and FIG. 6C are graphs showing chimeric antibodies targeting human BAFF-R elicited in vivo therapeutic effects against drug resistant B-cell tumors. Bioluminescence images of mice challenged with luciferase-expressing tumors JeKo-1-CD20-KO cells (FIG. 6A) or ibrutinib-resistant Z-138 cells (FIG. 6B) followed by antibody treatments as in FIG. 4. Control group mice received PBS, NK cells alone, or rituximab on the same schedule. […] Tumor free rate and survival differences between experimental and all control groups were analyzed by log-rank test (** P<0.001). Data are representative of three independent experiments.
as §1

[2] = tested on: RS4 acute lymphoblastic lymphoma; test: Chromium release ADCC on RS4; type: cell-based, human; details: NK cells E:T 20:1, 6 hours
Experimental: FIGS. 21A and 21B are graphs showing humanized antibodies C90-4 and C90-5 analyzed for their specific cytotoxicity of various lymphoma lines. For FIG. 21A, JeKo-1, Z138, and RS4 were subjected to a chromium release assay with humanized antibodies C90-4 and C90-5. Antibodies were administered to the cell lines at concentrations between 0 to 5 μg/mL and incubated for 6 hours with NK cells at an E:T ratio of 20:1. The cell supernatants were analyzed for their chromium content. For FIG. 21B, LY-10, MEC-2, RL, and Raji lymphoma lines were subjected to a chromium release assay with humanized antibodies C90-4 and C90-5. Antibodies were administered to the cell lines at 5 μg/mL and incubated for 6 hours with NK cells at an E:T ratio of 20:1. The cell supernatants were analyzed for their chromium content.
The two variants were further assessed in their ability to initiate ADCC. The antibodies were administered in varying concentration to JeKo-1, Z138, and RS4 lines after a period of chromium uptake. The cells and antibodies were incubated with effector NK cells. The supernatant was analyzed 6 hours post treatment (FIG. 21A).

Row | Compound | viable cells (SP49) [%] | viable cells (SP49-IR) [%] | tumor growth (bioluminescence) [1] | sensitivity to antibody-mediated cytotoxicity (JeKo-1-CD20-KO clone 25) | tumor burden by bioluminescent imaging (JeKo-1-CD20-KO) | activity (ADCC) [2]
1 | C=CC(=O)N1CCC[C@@H](n2nc(-c3ccc(Oc4ccccc4)cc3)c3c(N)ncnc32)C1 [ibrutinib] | ~5 | > 90 |  |  |  | 
2 | rituximab [reference compound] |  |  | no inhibition | insensitive | substantial tumor burden | not active
